Experimental data published in article PMC12595434, “Development of retinoid nuclear receptor pathway antagonists through targeting aldehyde dehydrogenase 1A3” (iScience, 2025).
Where two headings read alike, the source gives them in different places.

Columns and labels:
ALDH1A3 = molecular target: T1, ALDH1A3 (Homo sapiens, UniProt P47895); experiment: Recombinant enzyme activity assay; type: biochemical; parameters: made in house; host or cells: BL21-DE3 E. coli
T1 sequence (P47895 1-512): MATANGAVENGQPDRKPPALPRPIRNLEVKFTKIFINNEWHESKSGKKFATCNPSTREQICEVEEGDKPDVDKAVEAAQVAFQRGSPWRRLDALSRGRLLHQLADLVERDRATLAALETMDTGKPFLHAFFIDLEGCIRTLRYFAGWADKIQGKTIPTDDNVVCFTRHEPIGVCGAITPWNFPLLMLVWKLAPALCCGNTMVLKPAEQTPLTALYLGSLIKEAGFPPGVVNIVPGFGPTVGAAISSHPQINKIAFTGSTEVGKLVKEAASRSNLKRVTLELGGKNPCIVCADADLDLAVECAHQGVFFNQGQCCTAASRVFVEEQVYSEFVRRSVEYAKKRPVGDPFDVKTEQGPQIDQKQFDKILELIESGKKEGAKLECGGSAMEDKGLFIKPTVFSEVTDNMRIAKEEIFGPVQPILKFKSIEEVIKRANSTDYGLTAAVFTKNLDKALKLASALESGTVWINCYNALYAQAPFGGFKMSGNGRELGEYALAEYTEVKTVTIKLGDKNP
Experimental: We then tested each published ALDH inhibitor against the three human ALDH1A enzymes to assess inhibitory activity and isozyme selectivity.
Recombinant protein was isolated by inducing BL21-DE3 E. coli (Thermo Fisher) containing the respective plasmid for 20 h at room temperature, shaking, with 300 μM IPTG (Selleck Chem). […] The target protein was then purified using Ni NTA beads 6FF affinity chromatography. Lysis buffer consisted of 50 mM Na2HPO4, 300 mM NaCl, 1 mM β-ME, pH7.5. The column (2 mL) was washed with 50 mM Na2HPO4, 300 mM NaCl, 1 mM β-ME, 20 mM Imidazole, pH7.5. Elution was performed using 3 mL of 50 mM Na2HPO4, 300 mM NaCl, 1 mM β-ME, 250 mM Imidazole, pH7.5. Following affinity chromatography, the protein underwent further purification via Gel filtration chromatography using a Superdex200 column. […] Purified enzyme was used for biochemical and biophysical assays.
For the recombinant enzyme activity assay, enzyme aliquots were thawed on ice for 4 h prior to analysis and the protocol was performed as described[8] with the following key changes: 1) Final concentrations of NAD+ (Gold Bio) were 200 μM and BSA were 1 mg/mL 2) Propanaldehyde was used as the substrate for ALDH1A1 and ALDH2. 3) Reaction velocity was monitored through diaphorase (clostridium) coupled reduction of resazurin (100 μM) monitored with ex/em of 560nm/590 nm in order to regenerate NAD+ and thus maintain constant cofactor concentration as well as to avoid high absorbance values of many screening compounds at the NADH absorbance. Assays were conducted at room temperature (controlled to 21-23C) and all buffers were maintained at pH 7.5. For all reactions, pre-incubation time was approximately 2 min while the reaction monitoring was performed over 10 min.

human ALDH1A2 = molecular target: T2, human ALDH1A2 (Homo sapiens, UniProt O94788); experiment: Recombinant enzyme activity assay; type: biochemical; conditions: for IC50: recombinant activity assay (Table 1), read-out: IC50 molecular, human ALDH1A2
T2 construct: made in house; host or cells: BL21-DE3 E. coli
T2 sequence (O94788 1-518): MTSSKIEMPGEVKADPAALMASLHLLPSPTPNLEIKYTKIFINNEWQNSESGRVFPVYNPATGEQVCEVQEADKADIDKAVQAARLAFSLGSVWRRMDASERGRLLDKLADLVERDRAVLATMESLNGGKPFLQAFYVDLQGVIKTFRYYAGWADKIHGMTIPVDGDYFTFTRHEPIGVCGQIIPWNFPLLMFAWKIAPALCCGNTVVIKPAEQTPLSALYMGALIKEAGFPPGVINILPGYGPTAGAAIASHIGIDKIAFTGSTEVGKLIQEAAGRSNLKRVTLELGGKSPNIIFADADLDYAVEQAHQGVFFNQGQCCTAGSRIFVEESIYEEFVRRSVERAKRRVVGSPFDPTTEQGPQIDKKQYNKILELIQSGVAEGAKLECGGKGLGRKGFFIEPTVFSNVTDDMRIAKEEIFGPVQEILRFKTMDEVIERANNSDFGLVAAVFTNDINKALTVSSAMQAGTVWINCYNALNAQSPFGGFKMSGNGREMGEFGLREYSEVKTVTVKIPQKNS

mouse ALDH1A3 = molecular target: T3, mouse ALDH1A3 (Mus musculus, UniProt Q9JHW9); experiment: Recombinant enzyme activity assay; type: biochemical
T3 construct: made in house; host or cells: BL21-DE3 E. coli
T3 sequence (Q9JHW9 1-512): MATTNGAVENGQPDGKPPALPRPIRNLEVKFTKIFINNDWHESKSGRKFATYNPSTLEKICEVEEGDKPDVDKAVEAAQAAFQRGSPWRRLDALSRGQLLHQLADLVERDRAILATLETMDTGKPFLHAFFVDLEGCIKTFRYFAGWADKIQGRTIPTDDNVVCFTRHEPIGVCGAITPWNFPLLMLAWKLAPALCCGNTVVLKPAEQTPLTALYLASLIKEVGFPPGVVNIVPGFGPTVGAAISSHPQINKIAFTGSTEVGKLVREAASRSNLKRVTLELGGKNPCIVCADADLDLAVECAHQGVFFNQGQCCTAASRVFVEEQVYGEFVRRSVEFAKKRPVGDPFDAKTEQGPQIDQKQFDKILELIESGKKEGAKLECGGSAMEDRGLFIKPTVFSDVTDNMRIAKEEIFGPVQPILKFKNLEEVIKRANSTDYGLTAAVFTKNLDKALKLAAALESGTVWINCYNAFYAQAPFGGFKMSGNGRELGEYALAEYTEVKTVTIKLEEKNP

human ALDH2 = molecular target: T4, human ALDH2 (Homo sapiens, UniProt P05091); experiment: Recombinant enzyme activity assay; type: biochemical; conditions: dose titration
T4 construct: made in house; host or cells: BL21-DE3 E. coli

Protein binding (human) = type: in vitro ADME; conditions: plasma
From the text: Table 1 Physiochemical, biochemical, and metabolic profile of lead compounds MBE1 and MBE1.5 | column: MBE1; MBE1.5

CYP3A4 = CYP3A4 (Homo sapiens, UniProt P08684); experiment: CYP inhibition; type: in vitro ADME
CYP2C9 = CYP2C9 (Homo sapiens, UniProt P11712); experiment: CYP inhibition; type: in vitro ADME
CYP2C9, sequence (P11712 whole entry): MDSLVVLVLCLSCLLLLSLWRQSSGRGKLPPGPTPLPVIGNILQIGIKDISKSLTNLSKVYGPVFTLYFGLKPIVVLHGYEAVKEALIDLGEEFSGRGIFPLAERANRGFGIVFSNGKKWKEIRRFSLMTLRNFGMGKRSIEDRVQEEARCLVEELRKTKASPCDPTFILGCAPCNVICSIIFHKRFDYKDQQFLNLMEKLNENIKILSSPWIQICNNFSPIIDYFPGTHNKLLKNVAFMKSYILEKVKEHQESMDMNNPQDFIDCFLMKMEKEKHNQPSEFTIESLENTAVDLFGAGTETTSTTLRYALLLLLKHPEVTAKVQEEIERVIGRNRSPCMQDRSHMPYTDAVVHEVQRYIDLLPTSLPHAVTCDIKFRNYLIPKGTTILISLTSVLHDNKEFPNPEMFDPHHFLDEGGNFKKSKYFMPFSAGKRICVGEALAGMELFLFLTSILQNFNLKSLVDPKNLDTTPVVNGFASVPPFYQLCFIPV

CYP3A4, sequence (P08684 whole entry): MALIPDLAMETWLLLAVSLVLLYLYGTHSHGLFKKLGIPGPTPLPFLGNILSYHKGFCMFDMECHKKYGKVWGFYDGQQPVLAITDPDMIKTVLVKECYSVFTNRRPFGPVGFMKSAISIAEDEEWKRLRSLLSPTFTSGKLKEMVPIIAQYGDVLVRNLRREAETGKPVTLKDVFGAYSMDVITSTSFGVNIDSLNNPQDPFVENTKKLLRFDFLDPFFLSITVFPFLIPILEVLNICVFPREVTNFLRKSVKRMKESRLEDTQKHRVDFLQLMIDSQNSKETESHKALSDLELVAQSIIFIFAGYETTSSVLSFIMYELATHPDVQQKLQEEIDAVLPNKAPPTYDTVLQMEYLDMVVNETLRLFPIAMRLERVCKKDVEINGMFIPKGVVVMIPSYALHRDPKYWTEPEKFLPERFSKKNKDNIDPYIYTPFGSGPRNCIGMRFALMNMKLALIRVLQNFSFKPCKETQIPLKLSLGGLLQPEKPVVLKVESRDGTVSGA
T4 sequence (P05091 18-517): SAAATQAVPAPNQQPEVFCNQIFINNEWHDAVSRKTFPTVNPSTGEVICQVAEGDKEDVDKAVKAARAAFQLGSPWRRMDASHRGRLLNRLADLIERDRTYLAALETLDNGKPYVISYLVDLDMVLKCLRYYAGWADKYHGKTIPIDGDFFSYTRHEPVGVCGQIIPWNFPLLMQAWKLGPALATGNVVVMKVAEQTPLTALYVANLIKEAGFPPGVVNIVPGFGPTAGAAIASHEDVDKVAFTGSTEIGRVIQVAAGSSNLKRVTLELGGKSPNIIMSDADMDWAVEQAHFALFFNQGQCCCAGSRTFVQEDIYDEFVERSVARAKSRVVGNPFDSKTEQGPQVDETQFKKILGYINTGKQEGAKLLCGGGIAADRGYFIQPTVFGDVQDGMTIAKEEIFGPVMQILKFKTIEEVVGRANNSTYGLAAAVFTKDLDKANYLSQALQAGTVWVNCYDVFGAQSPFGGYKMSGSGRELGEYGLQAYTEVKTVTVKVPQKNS

## CCc1cnccc1C(=O)Nc1cc2c(cc1F)NC(=O)CC2 [MBE1, 3-ethyl-N-(7-fluoro-2-oxo-3,4-dihydro-1H-quinolin-6-yl)pyridine-4-carboxamide]
ALDH1A3; dose titration, substrate competition assay, recombinant human ALDH1A3, 4-parameter equation, read-out: huALDH1A3 IC50
  IC50: 148 nM
ALDH1A3; hits of the 494-compound screen
  confirmatory screening result: true positives
Human ALDH1A2; biochemical inhibition of each isoform
  fold lower affinity for ALDH1A2 than for ALDH1A3: 4 fold
Human ALDH1A2
  IC50: 3330 nM
Mouse ALDH1A3; dose titration, substrate competition assay, recombinant mouse ALDH1A3, 4-parameter equation, read-out: muALDH1A3 IC50
  IC50: 209 nM
Human ALDH2
  inhibitory activity against ALDH2 (in words): no inhibition
Protein binding (human)
  fraction unbound: 0.527
CYP3A4
  inhibition at 10 µM: 42%
CYP2C9
  inhibition at 10 µM: 13.9%

## CCc1ccccc1C(=O)Nc1cc2c(cc1F)NC(=O)CC2 [MBE1.5, 2-ethyl-N-(7-fluoro-2-oxo-3,4-dihydro-1H-quinolin-6-yl)benzamide]
ALDH1A3; recombinant activity assay (Table 1), read-out: IC50 molecular, human ALDH1A3
  IC50: 83 nM
ALDH1A3; varying substrate and cofactor concentrations
  competition mode: noncompetitive inhibitor
Human ALDH1A2; dose titration, up to 10 μM
  inhibitory activity against ALDH1A2 (in words): minimal inhibition
Human ALDH1A2
  IC50: 5000 nM
Mouse ALDH1A3; recombinant activity assay (Table 1), read-out: IC50 molecular, mouse ALDH1A3
  IC50: 149 nM
Human ALDH2
  inhibitory activity against ALDH2 (in words): no inhibition
Protein binding (human)
  fraction unbound: 0.137
CYP3A4
  inhibition at 10 µM: 6.3%
CYP2C9
  inhibition at 10 µM: 5.6%
